Values after ≈ are worked out from the molar mass of the structure shown.
Experiments:
[1] = system: ovarian cancer 2D culture; parameters: method as in PMID 27585955; conditions: 2D culture and liposomal drug delivery system; cited from earlier work
SK-OV-3 (3D model) = system: SK-OV-3 (3D model); parameters: method as in PMID 27585955; conditions: 3D spheroid model; cited from earlier work
[2] = system: patient P3 cell lines (3D model, patient-derived ovarian cancer); parameters: method as in PMID 27585955; conditions: 3D spheroid model; cited from earlier work
[3] = system: U251 human malignant glioblastoma; test: MTT cell viability assay, U251; assay type: cell-based; conditions: U-251, MTT test, 72 h of action, read-out: IC50, Tumour Cell Lines, U251 Human Malignant Glioblastoma
Method: (§1) The MTT cell viability assay was performed according to a previously reported protocol. Briefly, adherent cells were seeded at a density of 5000 cells per 100 µL, and suspension cells at 25,000 cells per 100 µL, in 96-well plates and incubated overnight. Subsequently, test compounds were added in 100 µL of culture medium, followed by incubation for 72 h. After treatment, 20 µL of MTT solution (5 mg/mL, Sigma-Aldrich, Burlington, MA, USA) was added to each well. The resulting formazan crystals were dissolved in DMSO (Sigma-Aldrich, Burlington, MA, USA), and absorbance was recorded using a BioTek ELx800 Absorbance Reader (BioTek Instruments, Inc., Vinooski, VT, USA). IC50 values were calculated by nonlinear regression analysis using GraphPad Prism (version 9.1.1, GraphPad Software, Boston, MA, USA). Experiments were conducted in triplicate. Human leukemia Jurkat T-cells, human glioblastoma U251 cells were kindly provided by Collection at the Institute of Molecular Biology and Genetics, National Academy of Sciences of Ukraine (Kyiv, Ukraine). Murine macrophages of J774.2 line were a generous gift from Prof. Sir John Vane (William Harvey Research Institute, London, UK) provided via Prof. Janusz Marcinkiewicz (Jagiellonian University Medical College, Krakow, Poland). Human colorectal adenocarcinoma cell line HT-29 was kindly provided by Prof. Anna Bielawska (Department of Biotechnology, Faculty of Pharmacy, Medical University of Bialystok, Poland). Murine BALB/3T3 fibroblasts was obtained from the Cell Collection of the R.E. Kavetsky Institute of Experimental Pathology, Oncology and Radiobiology (Kyiv, Ukraine).

Mucor indicus = system: Mucor indicus; parameters: method as in PMID 30790326; conditions: cited from earlier work
[4] = system: Jurkat human acute T-cell leukaemia; test: MTT cell viability assay, Jurkat; assay type: cell-based; conditions: MTT test, 72 h of action, read-out: IC50, Tumour Cell Lines, Jurkat Human Acute T-Cell Leukaemia
Method: as §1

[5] = system: HT-29 human colorectal carcinoma; test: MTT cell viability assay, HT-29; assay type: cell-based; conditions: MTT test, 72 h of action, read-out: IC50, Tumour Cell Lines, HT-29 Human Colorectal Carcinoma
Method: as §1

Balb-3T3 mice fibroblast = test: MTT cell viability assay, Balb-3T3; assay type: cell-based; conditions: Mus musculus, MTT test, 72 h of action, read-out: IC50, Pseudo-Normal Cell Lines, Balb-3T3 Mice Fibroblast
Method: as §1

[6] = system: human lung cancer cells (A549); parameters: method as in PMID 15464834, doi:10.1177/1934578X0700200419; conditions: read-out: IC50 in cultured human lung cancer cells (A549); cited from earlier work
[7] = system: J744.2 mice macrophage-like cells; test: MTT cell viability assay, J744.2; assay type: cell-based; conditions: Mus musculus; MTT test, 72 h of action; read-out: IC50, Pseudo-Normal Cell Lines, J744.2 Mice Macrophage-Like Cells
Method: as §1

lung-NSC NCI-H460 = system: lung-NSC NCI-H460; parameters: method as in PMID 15943482; conditions: cited from earlier work
neuroblast SK-N-SH = system: neuroblast SK-N-SH; parameters: method as in PMID 15943482; conditions: cited from earlier work
pancreas BXPC-3 = system: pancreas BXPC-3; parameters: method as in PMID 15943482; conditions: cited from earlier work
salmon sperm DNA = test: DNA intercalation assay (methyl green displacement method); assay type: binding; conditions: 1 and 10 μM; for percentage of methyl green dye replaced from its complex with DNA: range over both doses; for affinity for DNA: methyl green displacement, in words
Method: To investigate the potential mechanisms of cell death induced by the studied derivative, we evaluated apoptosis using the fluorescence microscopy of cells stained with Hoechst-33342 and Ethidium Bromide (EtBr), as well as spectroscopic and DNA/methyl green displacement assays. Methyl green is a cationic dye that binds preferentially to the phosphate backbone of DNA (primarily in the major groove). If a compound (an intercalator or groove-binding agent) is added, it can compete with methyl green for binding to DNA. The higher the percentage of substituted methyl green, the stronger the compound interacts with DNA. Intercalation is the key feature of clinically used antitumor drugs, e.g., doxorubicin (DOX). DOX displaced 41.62–45.52% of methyl green from its complex with DNA (Figure 10). Another intercalator, EtBr, replaced 42.12–47.35% of methyl green from its complex with DNA.
A 485 μL aliquot of salmon sperm DNA (50 μg/mL, Sigma-Aldrich, Burlington, MA, USA) was incubated with 15 μL of methyl green solution (1 mg/mL, Sigma-Aldrich, Burlington, MA, USA) at 37 °C for 1 h. Subsequently, 500 μL of the test compounds, doxorubicin, or ethidium bromide (each at final concentrations of 1 μM and 10 μM) was added to the preformed methyl green–DNA complex. The samples were further incubated at 37 °C for 2 h in the dark. Absorbance was then recorded at 630 nm. GraphPad Prism (version 9.1.1, GraphPad Software, Boston, MA, USA) was used for the results analysis. Experiments were conducted in triplicate. Doxorubicin and ethidium bromide were purchased from Sigma-Aldrich, USA.

Jurkat cells = test: Fluorescent microscopy of Jurkat cells (Hoechst 33342/EtBr staining); assay type: cell-based, human; conditions: 0.5 µM, 24 h
Method: Jurkat cells were seeded in 24-well plates at a density of 250,000 cells/mL and incubated overnight prior to treatment. Cells were then treated for 24 h with compounds 4, 7, and 8 (0.5 µM) or doxorubicin (0.5 µM) as a positive control. Following treatment, cells were stained with Hoechst 33342 (0.2–0.5 µg/mL; Sigma-Aldrich, USA) and ethidium bromide (EtBr, 1 µg/mL). Fluorescence imaging was performed using a LIM-400 microscope (LABEX INSTRUMENT LIMITED, Ningbo, China) equipped with an MTR3CCD camera. Images were captured and analysed using ImageView software (version 4.11.21522.20221011).

prostate DU-145 = system: prostate DU-145; parameters: method as in PMID 15943482; conditions: cited from earlier work
[8] = system: Staphylococcus aureus 209P; parameters: method as in PMID 37298957; conditions: in words; cited from earlier work
P450 CYP1B1 isoform = system: P450 CYP1B1 isoform; parameters: method as in PMID 28632937; conditions: read-out: IC50 against the P450 CYP1B1 isoform; cited from earlier work
[9] = system: HeLa, MDA-MB-231, and MCF-7; parameters: method as in PMID 32171988; conditions: in words; cited from earlier work
cervical cancer HeLa = system: cervical cancer HeLa; parameters: method as in PMID 28669347; conditions: cited from earlier work
glioblastoma U87 = system: glioblastoma U87; parameters: method as in PMID 28669347; conditions: cited from earlier work

Molecule | IC50 [3] [µM] | IC50 [4] [µM] | IC50 [5] [µM] | IC50 (Balb-3T3 mice fibroblast) [µM] | IC50 [7] [µM] | further results
3-hydroxy-3,4,5,4′-tetramethoxy-trans-stilbene [DMU-214] | – | – | – | – | – | IC50 [1]: 0.022 µM; IC50 (SK-OV-3 (3D model)): 2.9 to 14.1 µM; IC50 [2]: 0.5 to 22.9 µM
COc1cc(/C=C/c2ccc(Br)cc2)cc(OC)c1OC [Compound 1, 4-bromo-3′,4′,5′-trimethoxy-trans-stilbene] | > 100 | 2.26 | > 100 | 3.2 | 6.63 | MIC toward Mucor indicus (Mucor indicus): 25 µg/mL (≈ 71.6 µM); IC50 [6]: 6.36 µM
COc1cc(/C=C/c2cc(OC)c(OC)c(OC)c2)cc(Br)c1OC [Compound 2, 3-bromo-3′,4′,5′,4,5-pentamethoxy-trans-stilbene] | > 100 | > 100 | > 100 | 72.8 | 7.93 | –
COc1cc(/C=C/c2cc(Br)c(OC)c(Br)c2)cc(OC)c1OC [Compound 3, 3,5-dibromo-3′,4′,5′,4-tetramethoxy-trans-stilbene] | > 100 | > 100 | > 100 | 76.4 | 20.4 | –
COc1ccc(/C=C/c2cc(OC)c(OC)c(OC)c2)cc1Br [Compound 4, 3-bromo-3′,4′,5′,4-tetramethoxy-trans-stilbene] | > 100 | 0.76 | > 100 | 2.85 | 5.21 | GI50 lung-NSC NCI-H460 (lung-NSC NCI-H460): 0.36 µg/mL (≈ 0.949 µM); GI50 neuroblast SK-N-SH (neuroblast SK-N-SH): 0.40 µg/mL (≈ 1.05 µM); GI50 pancreas BXPC-3 (pancreas BXPC-3): 0.34 µg/mL (≈ 0.897 µM); percentage of methyl green dye replaced from its complex with DNA (salmon sperm DNA): 1.87–5.98%; affinity for DNA (salmon sperm DNA): low affinity for DNA; effect on cell morphology and viability (apoptosis, chromatin condensation, DNA fragmentation) (Jurkat cells): induced moderate apoptosis; GI50 prostate DU-145 (prostate DU-145): 0.45 µg/mL (≈ 1.19 µM)
COc1cc(Br)c(/C=C/c2cc(OC)c(OC)c(OC)c2)cc1OC [Compound 5, 2-bromo-3′,4′,5′,4,5-pentamethoxy-trans-stilbene] | > 100 | 68.5 | > 100 | 51.7 | 71.1 | –
COc1cc(/C=C/c2cc(Br)cc(Br)c2)cc(OC)c1OC [Compound 6, 3,5-dibromo-3′,4′,5′-trimethoxy-trans-stilbene] | > 100 | 65.3 | > 100 | 3.75 | 9.97 | –
COc1ccc(/C=C/c2cc(OC)c(OC)c(OC)c2)cc1 [Compound 7, 3,4,5,4′-tetramethoxy-trans-stilbene] | > 100 | 0.65 | > 100 | 2.79 | 0.83 | percentage of methyl green dye replaced from its complex with DNA (salmon sperm DNA): 1.87–5.98%; affinity for DNA (salmon sperm DNA): low affinity for DNA; effect on cell morphology and viability (apoptosis, chromatin condensation, DNA fragmentation) (Jurkat cells): markedly reduced viable cell numbers and enhanced nuclear fragmentation
COc1ccc(/C=C/c2cc(OC)c(OC)c(OC)c2)cc1OC [Compound 8, 3,3′,4,4’,5-pentamethoxy-trans-stilbene] | > 100 | 0.82 | > 100 | 5.04 | 3.83 | percentage of methyl green dye replaced from its complex with DNA (salmon sperm DNA): 1.87–5.98%; affinity for DNA (salmon sperm DNA): low affinity for DNA; effect on cell morphology and viability (apoptosis, chromatin condensation, DNA fragmentation) (Jurkat cells): induced moderate apoptosis
COc1cc(OC)c(OC)cc1/C=C/c1ccc(OC)c(OC)c1 [Compound 10, 2,3’,4,4’,5-pentamethoxy-trans-stilbene] | > 100 | 8.95 | > 100 | > 100 | 91.6 | –
COc1cccc2c1C(=O)c1c(O)c3c(c(O)c1C2=O)C[C@@](O)(C(=O)CO)C[C@@H]3O[C@H]1C[C@H](N)[C@H](O)[C@H](C)O1 [DOX, doxorubicin, reference compound] | – | – | – | – | – | percentage of methyl green dye replaced from its complex with DNA (salmon sperm DNA): 41.62–45.52%; effect on cell morphology and viability (apoptosis, chromatin condensation, DNA fragmentation) (Jurkat cells): elicited a similar morphological disruption and chromatin fragmentation as compound 8 did
CC[n+]1c(-c2ccccc2)c2cc(N)ccc2c2ccc(N)cc21 [EtBr, Ethidium Bromide, reference compound] | – | – | – | – | – | percentage of methyl green dye replaced from its complex with DNA (salmon sperm DNA): 42.12–47.35%
Oc1ccccc1/C=C/c1cc[n+](Cc2ccccc2Br)cc1.[Br-] [IX, 1-(2-bromobenzyl)-4-[(E)-2-(2-hydroxyphenyl)ethenyl]pyridinium bromide] | – | – | – | – | – | activity against Staphylococcus aureus 209P [8]: promising activity
CSc1ccc(/C=C/c2ccccc2SC)cc1 [VI, 2,4′-dimethylthio-trans-stilbene] | – | – | – | – | – | IC50 (P450 CYP1B1 isoform): 0.026 µM
CCCCCCCCCCCCCCCC[N+](C)(CCCCCCCCCCCCCCCC)CNC(=O)c1cc(OC)c(OC)c(OC)c1/C=C/c1cc(OC)c(OC)c(OC)c1 [VII, quaternary amine derivative chloride of 4,5,6,3′,4′,5′-hexamethoxy-trans-stilbene] | – | – | – | – | – | antitumor activity against cancer lines compared with resveratrol and tamoxifen [9]: higher antitumor activity
COc1ccc(/C=C/c2ccc([N+](=O)[O-])cc2[N+](=O)[O-])c(O)c1 [VIII, 2-hydroxy-4-methoxy-2′,4′-ditro-trans-stilbene] | – | – | – | – | – | IC50 (cervical cancer HeLa): 6.97 µM; IC50 (glioblastoma U87): 55.8 µM
COc1ccc(/C=C(\C#N)c2cc(OC)c(OC)c(OC)c2)cc1OC [Z isomer of compound XII, reference compound] | – | – | – | – | – | IC50 [6]: 0.03 µM
